# According to USRE37781E1, “Substituted cyclic carbonyls and derivatives thereof useful as retroviral protease inhibitors” (DuPont Pharmaceuticals Company, priority 1991, dated 2002):
# Read-outs that look alike come from different tables or passages of the source.
# Assays:
# [1] = test system: HIV-1 (RF) in MT-2 cells; test: microbe, parasite or virus in culture; assay type: cell-based; conditions: read-out: IC90
# Procedure, shortened: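 HIV-1 laboratory strains (RF, MN, IIIB) grown in H9 cells in RPMI 1640 with 5% FCS; infections in MT-2 cells. Viral RNA quantified by hybridization with biotinylated gag/pol capture probes on streptavidin plates and alkaline phosphatase-conjugated reporter probes; BH10 gag-pol in vitro transcripts serve as RNA standards.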
# [2] = molecular target: single-chain tethered dimer of HIV protease (Human immunodeficiency virus 1, UniProt P04585); test: biochemical; assay type: biochemical; parameters: fused on or other part: A second copy of the same protease unit is joined to the first by a short peptide tether, giving one polypeptide
# [3] = Human immunodeficiency virus 1, MT2, 48 h, Table 2d, class symbols
# [4] = read-out: HPLC K1, Table 2d, class symbols
# [5] = Human immunodeficiency virus 1, MT2, 48 h, Table 2d, HIV RNA assay
# [6] = read-out: HPLC K1, Table 2d, HIV protease inhibition, HPLC method
Structure (SMILES),"IC90 [1, 3] [µg/mL]","Ki [2, 4] [nM]",melting point,"IC90 [1, 5] [µg/mL]","Ki [2, 6] [nM]","IC90 ([1]; Human immunodeficiency virus 1, MT2, Table 2m) [µg/mL]","Ki ([2]; read-out: HPLC Ki, Table 2m) [nM]"
O=C1N(Cc2cccc(-c3nnn[nH]3)c2)C(Cc2ccccc2)C(O)C(O)C(Cc2ccccc2)N1CC1CC1 (stereo not drawn) [9U],< 10,< 10,171.6 °C,,,,
N=C(N)c1cccc(CN2C(=O)N(Cc3cccc(C(=N)N)c3)C(Cc3ccccc3)C(O)C(O)C2Cc2ccccc2)c1 (stereo not drawn) [11A],> 100,10 to 1000,224 to 226 °C,,,,
NC(=NO)c1ccc(CN2C(=O)N(Cc3ccc(CO)cc3)C(Cc3ccccc3)C(O)C(O)C2Cc2ccccc2)cc1 (stereo not drawn) [15AI],,,215 °C,< 10,10 to 1000,,
O=C1N(Cc2ccccc2)C(Cc2ccccc2)C(O)C(O)C(Cc2ccccc2)N1Cc1cccc(O)c1 (stereo not drawn) [11I],< 10,< 10,189 to 193 °C,,,,
CC(=O)c1cccc(CN2C(=O)N(Cc3cccc(Br)c3)C(Cc3ccccc3)C(O)C(O)C2Cc2ccccc2)c1 (stereo not drawn) [Example 9o],< 10,10 to 1000,190 to 191 °C,,,,
CNC(=O)c1cccc(CN2C(=O)N(Cc3cccc(CO)c3)C(Cc3ccccc3)C(O)C(O)C2Cc2ccccc2)c1 (stereo not drawn) [11M],< 10,< 10,107 to 109 °C,,,,
O=C(O)c1cccc(CN2C(=O)N(Cc3ccccc3)C(Cc3ccccc3)C(O)C(O)C2Cc2ccccc2)c1 (stereo not drawn) [15WP],< 10,< 10,122 to 124 °C,,,,
O=C1N(Cc2ccc3[nH]ccc3c2)C(Cc2ccccc2)C(O)C(O)C(Cc2ccccc2)N1Cc1ccc2[nH]ccc2c1 (stereo not drawn) [15DE],,,170 °C (dec.),< 10,< 10,,
CNc1cccc(CN2C(=O)N(Cc3ccc4ccccc4c3)C(Cc3ccccc3)C(O)C(O)C2Cc2ccccc2)c1 (stereo not drawn) [15WZ],< 10,< 10,98 to 100 °C,,,,
CCOC(=O)c1ccc(CN2C(=O)N(Cc3ccc(C(=O)OCC)cc3)C(Cc3ccccc3)C(O)C(O)C2Cc2ccccc2)cc1 (stereo not drawn) [Example 11F],> 100,10 to 1000,174 to 178 °C,,,,
O=C1N(Cc2cccc(NS(=O)(=O)C(F)(F)F)c2)C(Cc2ccccc2)C(O)C(O)C(Cc2ccccc2)N1Cc1cccc(NS(=O)(=O)C(F)(F)F)c1 (stereo not drawn) [15B],10 to 100,< 10,141.8 °C,,,,
O=C1N(Cc2cccc(-c3ncc[nH]3)c2)C(Cc2ccccc2)C(O)C(O)C(Cc2ccccc2)N1Cc1cccc(-c2ncc[nH]2)c1 (stereo not drawn) [Example 15BR],,,178 to 180 °C,< 10,< 10,,
O=[N+]([O-])c1cccc(CN2C(Cc3ccccc3)C(O)C(O)C(Cc3ccccc3)N(Cc3cccc([N+](=O)[O-])c3)S2(=O)=O)c1 (stereo not drawn) [23L],,,196 to 198 °C,,,< 10,10 to 1000
O=C1N(Cc2ccc(CO)cc2)C(Cc2ccccc2)C(O)C(O)C(Cc2ccccc2)N1Cc1cccc(O)c1 (stereo not drawn) [10o],< 10,< 10,141 to 144 °C,,,,
NC(=O)c1cccc(CN2C(=O)NC(Cc3ccccc3)C(O)C(O)C2Cc2ccccc2)c1 (stereo not drawn) [15WW],< 10,< 10,114 to 116 °C,,,,
O=C1N(Cc2ccc3[nH]ncc3c2)C(Cc2ccccc2)C(O)C(O)C(Cc2ccccc2)N1Cc1ccc2[nH]ncc2c1 (stereo not drawn) [15CX],,,165 to 170 °C,< 10,< 10,,
CCN(CC)C(=O)c1cccc(CN2C(=O)N(Cc3cccc(CO)c3)C(Cc3ccccc3)C(O)C(O)C2Cc2ccccc2)c1 (stereo not drawn) [15WJ],< 10,< 10,88.9 to 90 °C,,,,
CN(C)c1cccc(CN2C(=O)N(Cc3cccc(N(C)C)c3)C(Cc3ccccc3)C(O)C(O)C2Cc2ccccc2)c1 (stereo not drawn) [15I],< 10,< 10,199.9 °C,,,,
N#Cc1cc(CN2C(=O)N(Cc3cccc(-c4cc[nH]n4)c3)C(Cc3ccccc3)C(O)C(O)C2Cc2ccccc2)ccc1F (stereo not drawn) [Example 15CF],,,118 to 120 °C,< 10,< 10,,
